According to PMC10876507, “Chelator impact: investigating the pharmacokinetic behavior of copper-64 labeled PD-L1 radioligands” (EJNMMI Radiopharmacy and Chemistry, 2024):
“And” between values parts separate entries of the source, which are not always exact repeats. Identical values can stand only once.

What was measured:
[1] = n-octanol/PBS pH 7.4, shake flask
Description: The n-octanol/water distribution coefficients for each radioligand were determined using the shake-flask method. Each experiment was conducted in triplicate. To initiate the experiment, 30 µL of the labeling mixture was combined with 570 µL of PBS (pH 7.4) and 600 µL of n-octanol in a 1.5 mL Eppendorf-Tube. The resulting mixture was shaken at room temperature at 1500 rpm for 5 min before undergoing centrifugation. An aliquot was extracted from each phase, and radioactivity was measured on a γ-counter (ISOMED 2160). Subsequently, mean values were calculated and adjusted for background activity. The log D7.4 value was determined utilizing the equation: logD7.4=logAn-octanol/APBS

[2] = Proteolytic stability in human serum at 37 °C, radio-HPLC; type: in vitro ADME; conditions: 48 h
Description: For proteolytic stability studies, a solution of the radiolabeled compound was diluted with human serum in a ratio of 1:10. This mixture then underwent incubation at 37 °C while being shaken at 300 rpm. At each designated timepoint (1, 24 and 48 h), an aliquot was withdrawn and added to a detergent solution (water with 20% v/v EtOH, 5% v/v 5 mM aqueous EDTA, 0.5% v/v Triton X-100, 0.1% m/v saponin, 0.05% v/v 0.5 mM aqueous o-phenanthroline) in a ratio of 1:2 for precipitation of serum proteins. The mixture was cooled on ice for 5 min, followed by centrifugation at 12,000 g for 5 min. A minor portion of the resulting supernatant was subjected to analytical radio-HPLC (reversed-phase, Phenomenex Jupiter 300 C-18, 5 µm, 4.6 × 250 mm) with 10–95% acetonitrile (0.1% TFA) in water (0.1% TFA) in a linear gradient over 15 min, 1 mL/min, γ-detection). The assessment and graphical representations were performed using OriginPro® 9.0.

[3] = test system: PC3 PD-L1 and PC3 mock cells; assay: In vitro cell uptake in PC3 PD-L1 and PC3 mock cells; type: cell-based, human; conditions: for incubation time at which cell uptake plateaued: PC3 cells, incubation 30–240 min at or close to KD; for uptake/binding to PC3 PD-L1-positive cells vs PC3 mock cells: mixed-effects model, main effect of cell type
Description: Both the target-positive (PC3 PD-L1) and negative cells (PC3 mock) were seeded at ~60,000 cells per well two days prior to the experiment. At the time of experiment, cells were then incubated with the respective radioligand at or close to the KD (determined by saturation binding) in binding buffer. For each timepoint and radiotracer (30, 60, 120 and 240 min), a single plate was used (with triplicate measurements). Additional controls per plate included plastic retention, nonspecific binding [excess of unlabeled BMS-1166 (in DMSO, resulting in 0.03% v/v) for both PC3 PD-L1 and PC3 mock] and cells incubated with PBS only (protein control). Following incubation, cells were washed twice in ice-cold binding buffer, lysed in 500 μL of 0.1 M NaOH + 1% SDS and radioactivity was measured in a gamma counter (Perkin Elmer Wizard 1480) and decay corrected to a reference time (end of radiolabeling).
Protein content was determined for each timepoint and cell type by BCA assay.
Figure S27: Cell uptake (fmol/mg protein) of [64Cu]Cu-14&16 into either PC3 PD-L1 or PC3 mock cells. Uptake of both […]
effects model. Binding to PC3 mock cells is similar to that of PC3 PD-L1 and PC3 mock cells blocked with an excess of […]

[4] = biological target: PD-L1 (Homo sapiens, UniProt Q9NZQ7); assay: Real-time radioligand binding (LigandTracer) on PC3 PD-L1 overexpressing cells, without BSA; parameters: expressed in transfected cells; host or cells: PC3 PD-L1 overexpressing cells; conditions: for Kd: PC3 PD-L1 overexpressing cells, room temperature, without BSA; for ka: association rate constant; for ka / kd: real-time binding; for kd: dissociation rate constant
PD-L1, sequence (Q9NZQ7 19-290): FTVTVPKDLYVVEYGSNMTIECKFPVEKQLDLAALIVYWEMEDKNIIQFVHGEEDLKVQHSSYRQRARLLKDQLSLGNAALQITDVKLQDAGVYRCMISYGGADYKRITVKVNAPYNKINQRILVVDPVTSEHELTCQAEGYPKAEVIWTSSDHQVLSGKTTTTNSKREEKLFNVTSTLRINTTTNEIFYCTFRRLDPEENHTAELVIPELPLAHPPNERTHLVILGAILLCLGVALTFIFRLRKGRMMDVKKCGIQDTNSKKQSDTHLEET
Description: For the saturation binding experiments, cells were detached with 0.05% Trypsin–EDTA (Gibco, USA), and counted (CASY1 cell counter, Schaerfe System, Reutlingen, Germany). Cells were then diluted in medium to ~ 160,000 cells/mL and seeded in 48 well plates (Falcon Multiwell #353078, ThermoFisher, Karlsruhe, Germany) for at least 2 days prior to saturation binding experiments. For real-time radioligand binding, approximately 400,000 cells/mL were seeded into one side of petri dishes (3 mL, Nunclon, # 150350, ThermoFisher Germany) ~ 24 h before the experiments.
To investigate binding kinetics, including the association rate constant (ka) and dissociation rate constant (kd), as well as the dissociation constant (KD), a real-time assay system (LigandTracer Yellow or LigandTracer White, Ridgeview Instruments AB, Uppsala, Sweden) was utilized. The petri dish contained attached cells in medium (3 mL) on one side, while radioactivity was detected on the opposing side. The petri dish is set upon an inclined base, allowing continuous measurement of alternating portions of the dish for bound radioligand (cells) compared to the background signal (no cells). Binding experiments were carried out at room temperature using CO2-independent medium (Gibco #18045088, ThermoFisher Germany).
The association phase consisted of incubation with two concentrations (30 and 90 nM, each for 90 min) of our ^64Cu-labeled PD-L1-radioligands, binding to PC3 PD-L1 overexpressing cells. Following this, the incubation medium was replaced with fresh medium, and the dissociation phase was monitored for a minimum of 2 h. […] Data were recorded as decay-corrected counts per second (CPS). Subsequently, binding data were analyzed using TraceDrawer software (version 1.9.2, Ridgeview Instruments AB, Uppsala, Sweden). Traces were imported, potential spikes (instances of sudden CPS increases exceeding 100% of the previous data point) were eliminated, and each trace was normalized to its own baseline (set as 0%) and its maximum value (set as 100%).

Row | Compound | Log D7.4 [1] | intact radioligand after incubation in human serum [2] | incubation time at which cell uptake plateaued [3] [min] | incubation time at which cell uptake plateaued ([3]; listed as [64Cu]Cu-14) [min] | uptake/binding to PC3 PD-L1-positive cells vs PC3 mock cells ([3]; listed as [64Cu]Cu-14) | Kd [4] | ka [4] | kd [4] | uptake/binding to PC3 PD-L1-positive cells vs PC3 mock cells ([3]; listed as [64Cu]Cu-16)
1 | Cc1c(COc2cc(OCc3cncc(S(C)(=O)=O)c3)c(CN[C@@H](CS(=O)(=O)O)C(=O)NCCS(=O)(=O)O)cc2Br)cccc1-c1cccc(OCc2cn(CCCN3CCN(C(=O)[C@H](CS(=O)(=O)O)NC(=O)CC[C@H](C(=O)[O-])N4CCN(CC(=O)[O-])CCN(CC(=O)[O-])CC4)CC3)nn2)c1C.[64Cu+2] [[^64Cu]Cu-14] | –3.00 ± 0.03 | over 95% | 60 | ≤ 60 | significant main effect of target expression | ~20 nM and 23.3 nM | (5.06 ± 0.25) × 10^3 (M × s)^–1 | (1.17 ± 0.06) × 10^–4 s^–1 | –
2 | Cc1c(COc2cc(OCc3cncc(S(C)(=O)=O)c3)c(CN[C@@H](CS(=O)(=O)O)C(=O)NCCS(=O)(=O)O)cc2Br)cccc1-c1cccc(OCc2cn(CCCN3CCN(C(=O)[C@H](CS(=O)(=O)O)NC(=O)CCCC(=O)NC45CNCCNCC(N)(CNCCNC4)CNCCNC5)CC3)nn2)c1C.[64Cu+2] [[^64Cu]Cu-16] | –2.79 ± 0.02 | 89% | – | – | – | 24.2 ± 0.93 nM | (5.55 ± 0.31) × 10^3 (M × s)^–1 | (1.35 ± 0.09) × 10^–4 s^–1 | significant main effect of target expression
